Measured values reported in patent US20260240800A1, “ELAFIBRANOR FOR THE TREATMENT OF PRIMARY BILIARY CHOLANGITIS” (Genfit, priority 2023, published 2026).

System: participants with primary biliary cholangitis
Test: NCT04526665 (ELATIVE) double-blind, placebo-controlled phase 3 clinical trial
Type: in vivo, human
Experimental: Participants aged 18 to 75 years, who had been diagnosed with primary biliary cholangitis according to established criteria, were recruited at 82 sites in 14 countries. Inclusion criteria were an alkaline phosphatase level of ≥1.67 times the upper limit of the normal range (ULN), and a total bilirubin level of ≤2 times the ULN. Prior to screening, eligible participants had received 13 to 15 mg/kg ursodeoxycholic acid treatment per day for at least 12 months (stable dose for at least 3 months) or were intolerant to ursodeoxycholic acid (no treatment for at least 3 months).
In this double-blind, placebo-controlled, phase 3 trial, participants with an inadequate response or intolerance to ursodeoxycholic acid were randomized 2:1 to receive elafibranor 80 mg or placebo once daily. Participants receiving stable doses of ursodeoxycholic acid for at least three months prior to enrollment continued their treatment regimen throughout the trial. The overall double-blind treatment period consisted of two parts. In part one, all randomized participants received a minimum of 52 weeks of double-blind treatment. In part two, participants continued to receive double-blind treatment beyond Week 52 in a variable treatment period until all participants had completed their Week 52 assessment or until a maximum treatment duration of 104 weeks, whichever came first. The first database lock occurred after the last participant completed their Week 52 visit in the double-blind period. At the end of the double-blind period (lasting 52 to 104 weeks), participants could optionally enter an open-label extension where they would receive elafibranor 80 mg for up to five years.
The primary endpoint of Study NCT04526665 was response to treatment in the intent-to-treat population at Week 52, defined as ALP<1.67×ULN, TB≤ULN, and ALP decrease ≥15% from baseline. The primary endpoint was also analyzed according to baseline alkaline phosphatase levels of ≤3 times versus >3 times the ULN.
From September 2020 through May 2023, 161 participants were randomly assigned to receive elafibranor 80 mg (108 participants) or placebo (53 participants); these participants made up the intent-to-treat (ITT) and safety populations.

## CSc1ccc(C(=O)C=Cc2cc(C)c(OC(C)(C)C(=O)O)c(C)c2)cc1 [elafibranor, 2-(2,6-dimethyl-4-{3-[4-(methylsulfanyl)phenyl]-3-oxoprop-1-en-1-yl}phenoxy)-2-methylpropanoic acid]
80 mg daily
  efficacy in baseline ALP >1.67×ULN and ≤3×ULN relative to baseline ALP >3×ULN: more than 3 times
1.67 ULN < ALP ≤ 3 ULN, ITT Analysis Set, n=65
  Primary endpoint met at week 52, n (%): 46 (70.8) n (%)
ALP <3×ULN, AST <2×ULN and TB ≤1 mg/dL, ITT Analysis Set, n=106
  Response according to Paris I criteria: Primary endpoint met at week 52, n (%): 73 (68.9) n (%)
ALP > 3 ULN, ITT Analysis Set, n=43
  Primary endpoint met at week 52, n (%): 9 (20.9) n (%)
PBC patients
  safety and tolerability in patients: safe and well-tolerated
Week 52, ITT Analysis Set
  Odds Ratio of response (elafibranor vs placebo), Paris I criteria: 2.852
  Proportion of responders (Paris I criteria): 0.689
  Risk difference (Paris I response, elafibranor vs placebo): 0.220
  difference in Paris I response vs placebo: 22.0%
Week 52, ITT Analysis Set, 73/106
  participants with response based on ALP<3×ULN, AST<2×ULN and TB≤1 mg/dl (Paris I): 68.9%
All participants, Week 52
  complete normalization of alkaline phosphatase at Week 52, difference vs placebo: 15%
All participants, Week 52, 95% CI 2.8 to infinity
  complete normalization of alkaline phosphatase at Week 52, odds ratio vs placebo: infinity
All participants, elafibranor 80 mg once daily, Week 52
  complete normalization of alkaline phosphatase at Week 52, % of participants: 15%
Baseline ALP >3 times the ULN
  complete normalization of alkaline phosphatase at Week 52, % of patients: 4.7%
Baseline ALP >3 times the ULN (43 participants), Week 52
  participants who met the primary endpoint (ALP<1.67×ULN, TB≤ULN, ALP decrease ≥15%): 20.9%
Baseline ALP more than 1.67×ULN and at most 2×ULN vs others, Week 52
  frequency of ALP normalization relative to other participants (FIG. 4): at least 4 times
Baseline ALP more than 1.67×ULN and at most 2.5×ULN
  participants with a biochemical response at Week 52 (FIG. 3): more than 80%
Baseline ALP more than 2.5×ULN and at most 3×ULN
  participants with a biochemical response at Week 52 (FIG. 3): more than 50%
Baseline ALP more than 3×ULN
  participants with a biochemical response at Week 52 (FIG. 3): less than 23%
Baseline ALP ≤3 ULN versus higher baseline ALP
  biochemical response and ALP normalization rates by baseline ALP (FIGS. 3 to 5): higher biochemical response and ALP normalization rates
Baseline ALP ≤3 times the ULN
  complete normalization of alkaline phosphatase at Week 52, % of patients: 21.5%
Baseline ALP ≤3 times the ULN (65 participants), Week 52
  participants who met the primary endpoint (ALP<1.67×ULN, TB≤ULN, ALP decrease ≥15%): 70.8%
Baseline through Week 4, sustained significantly lower than placebo through Week 52
  reductions in alkaline phosphatase levels over time: Rapid reductions
Treatment with elafibranor vs placebo
  reduction in plasma ALP levels from baseline compared to placebo: statistically significant reduction
